In BindingDB's records for doi:10.1021/jm001043t (Lawrence Berkeley National Laboratory, 2001):

How the values were obtained:
[1] = molecular target: Cyclin-dependent kinase 4/G1/S-specific cyclin-D1 (Homo sapiens, UniProt P11802); test: CDK2/Cyclin E and CDK4/Cyclin D1 Kinase Assay; settings: pH 7.5; 30 °C
Method: (§1) The enzyme was assayed with substrate GST-Rb in the presence of 10 uM ATP/[gamma-33P] ATP, and capturing the 33-P labeled reaction products on GSH-Sepharose beads. […] Use of 33P-labeled ATP allows this transfer to be monitored by scintillation counting.

[2] = molecular target: Cyclin-dependent kinase 2/G1/S-specific cyclin-E1 (Homo sapiens, UniProt P24941); test: CDK2/Cyclin E and CDK4/Cyclin D1 Kinase Assay; settings: pH 7.5; 30 °C
Method: as §1

[3] = molecular target: Cyclin-dependent kinase/G2/mitotic-specific cyclin- 1 (Homo sapiens, UniProt P06493); test: CDK1/Cyclin B Kinase SPA Assay; settings: pH 8; 30 °C
Method: The biochemical activity of compounds was determined by incubation with specific enzyme and substrate in the presence 0.5 uM ATP/ [gamma-33P] ATP. After incubation, the reaction was stopped and the phosphorylated substrate was separated from nonincorporated radioactive ATP using Streptavidin-coated SPA beads, counted using TopCount (Packard) to measure substrate-incorporated phosphate.

Sequence of Cyclin-dependent kinase 4/G1/S-specific cyclin-D1 (P11802 whole entry): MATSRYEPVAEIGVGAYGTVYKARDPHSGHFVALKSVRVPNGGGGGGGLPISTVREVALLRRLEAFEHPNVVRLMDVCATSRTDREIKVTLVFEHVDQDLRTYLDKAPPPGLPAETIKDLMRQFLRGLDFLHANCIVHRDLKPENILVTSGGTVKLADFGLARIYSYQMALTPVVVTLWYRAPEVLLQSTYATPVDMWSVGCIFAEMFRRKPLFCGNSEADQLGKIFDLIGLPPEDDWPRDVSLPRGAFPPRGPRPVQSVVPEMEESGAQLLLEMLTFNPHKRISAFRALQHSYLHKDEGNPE
Sequence of Cyclin-dependent kinase 4/G1/S-specific cyclin-D1 (P24385 whole entry, further chain): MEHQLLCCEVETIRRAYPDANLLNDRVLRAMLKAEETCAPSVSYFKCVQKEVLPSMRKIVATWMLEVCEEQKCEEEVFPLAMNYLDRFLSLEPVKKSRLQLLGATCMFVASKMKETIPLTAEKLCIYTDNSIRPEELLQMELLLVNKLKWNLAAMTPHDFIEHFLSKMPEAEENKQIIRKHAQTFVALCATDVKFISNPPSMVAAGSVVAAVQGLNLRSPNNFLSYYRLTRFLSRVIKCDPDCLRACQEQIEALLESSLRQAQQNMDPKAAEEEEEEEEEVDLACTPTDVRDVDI
Sequence of Cyclin-dependent kinase/G2/mitotic-specific cyclin- 1 (P06493 whole entry): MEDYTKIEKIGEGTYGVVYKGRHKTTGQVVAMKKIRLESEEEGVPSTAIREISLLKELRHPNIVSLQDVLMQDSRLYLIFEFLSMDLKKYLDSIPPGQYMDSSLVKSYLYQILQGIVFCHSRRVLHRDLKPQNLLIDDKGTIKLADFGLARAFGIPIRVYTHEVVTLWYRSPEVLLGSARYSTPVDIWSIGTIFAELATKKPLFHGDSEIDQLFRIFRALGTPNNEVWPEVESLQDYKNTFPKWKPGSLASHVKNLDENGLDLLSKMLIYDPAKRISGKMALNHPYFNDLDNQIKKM
Sequence of Cyclin-dependent kinase/G2/mitotic-specific cyclin- 1 (P14635 whole entry, further chain): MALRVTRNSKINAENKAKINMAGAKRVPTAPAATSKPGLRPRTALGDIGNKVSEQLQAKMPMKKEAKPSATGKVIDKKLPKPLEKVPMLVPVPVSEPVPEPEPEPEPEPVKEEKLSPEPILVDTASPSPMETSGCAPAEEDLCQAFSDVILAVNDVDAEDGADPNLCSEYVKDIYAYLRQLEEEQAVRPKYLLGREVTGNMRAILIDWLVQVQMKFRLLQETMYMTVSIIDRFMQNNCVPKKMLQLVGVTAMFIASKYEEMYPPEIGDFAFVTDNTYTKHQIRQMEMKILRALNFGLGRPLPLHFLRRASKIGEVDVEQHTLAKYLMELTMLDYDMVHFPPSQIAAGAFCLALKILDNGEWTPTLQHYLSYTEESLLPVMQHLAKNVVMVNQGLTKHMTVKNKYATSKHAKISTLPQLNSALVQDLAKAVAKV

- IC50 [1]: 8.8 µM
- IC50 [2]: 720 nM
- IC50 [3]: 2000 nM
Structure (SMILES): C[C@@H](Nc1nc(N[C@H]2CC[C@H](N)CC2)nc2c1ncn2C1CCCC1)c1ccccc1 [2,6,9-trisubstituted adenine derivative]
